The values below come from patent US10035792B2, “Resorcinol derivative as HSP90 inhibitor” (priority 2015, dated 2018).

A word on the pEC50: it is the EC50 on a negative log10 scale, so that one unit is a factor of ten. Lower therefore signals a high EC50. The term pIC50 denotes the negative decadic logarithm of the IC50, by convention in mol/L.

pEC50, pIC50: −log10 of the molar value.

Data set [1] in a line: in vivo. On the set-up: species or system SD rats. The note with it: male, SD, rat, iv, 1 mg/kg. Here is the method:
SD rats were used as the subject animals. The drug concentrations in plasma, lung and breast tissue were measured by LC/MS/MS method at different times after the compound of Example 67 was intravenously injected at the tails of rats. The tissue distribution of the compounds of the present invention in rats was studied and their pharmacokinetic characteristics were evaluated. 2.1 Experimental Drugs: Luminespib, Ganetespib and the compound of Example 67. Healthy adult male SD rats, 100-200 g, 9 rats in total, purchased from Shanghai Slack Laboratory Animal Co., Ltd. The appropriate amounts of the samples were weighed. All of Luminespib, Ganetespib and the compound 67 of the present invention were formulated into clear solutions in […] in 10% DMSO/14% Cremophor RH40/76% D5W, for intravenous injection. 9 SD male rats were divided into three groups, three rats in each group. After normal feeding, administrations were carried out in tails by intravenous injection at the dose of 1 mg/kg. Samples were collected from blood, lung and breast tissues in three group rats at 0.5 h, 6 h and 24 h after administration. The blood samples were centrifuged at 4° C., 3000 rpm for 15 min within half an hour after collection, to separate and obtain plasma samples. The resulting plasma samples were placed in polypropylene tubes and stored at −80° C. for LC/MS/MS analysis. After the collection of the blood samples, the animals were sacrificed with CO2, followed by collection of the tissue samples. Each of the tissue samples was washed twice with cold deionized water and adhered to filter papers. Each of the tissue samples was then homogenized several times in MeOH/15 mM PBS (1:2) (5 mL MeOH/15 mM PBS (1:2) per gram of tissue, with a dilution factor of 6) to ensure the formation of homogeneous phase. The whole process was carried out below freezing point temperature. The homogenized samples were quickly frozen by using dry ice and stored at −80° C. for bioanalysis. The contents of the test compound in rat plasma, lung and breast tissue after injection administration were measured by LC/MS/MS.

The subject of data set [2] is A549 tumor cells. Description: In vivo efficacy, A549 transplantation tumor in nude mice. The note with it: A549 xenograft, 50 mg/kg intravenously twice a week. As to the method:
(§1) A549 tumor cells were subcutaneously inoculated in the right armpit of nude mice in 5×10^6 cells/mouse, to form a transplantion tumor. When the volume reached 100-200 mm^3, the animals were randomly divided according to tumor volume, into the negative control group (n=5), the positive control group groups (n=5 in each group), and the experimental groups (n=5 in each group). The experimental groups were respectively injected intravenously with the positive drug Luminespib (50 mg/kg) and compound 1 (50 mg/kg) at different concentrations, twice a week, and the negative control group was administrated an equal amount of solvent simultaneously. The length (A) and width (B) of the tumor were measured twice a week with a vernier caliper, and the tumor volume was calculated according to V=A×B^2/2. Relative tumor volume (RTV) was calculated as follows: RTV=Vt/V0, wherein Vt is the tumor volume at the end of the administration, and V0 is the tumor volume measured before separation and administration. The pharmacodynamic evaluation index of antitumor activity is relative tumor proliferation rate T/C (%), and the calculation formula is: T/C (%)=TRTV/CRTV×100%, wherein TRTV: RTV of the treatment group; CRTV: RTV of the negative control group. Efficacy evaluation criteria: T/C %>60% is inefficient; T/C %≤60% and P<0.05 by statistical treatment is effective. The tumor growth inhibition rate (TGI) was calculated as follows: TGI (%)={[(CVt−CV0)−(TVt−TV0)]/(CVt−CV0)}×100%
(§2) Wherein, CVt is the tumor volume of the control group at the end of the administration; CV0 is the tumor volume of the control group before separation and administration; TVt is the tumor volume of the administration group at the end of the administration; and TV0 is the tumor volume of the administration group before separation and administration. The difference in tumor volume between the administration group and the control group was examined by t-test. At the same time, the body weights of nude mice in each group were weighed twice a week to preliminarily evaluate the toxic side effects of the drug.

The test system of data set [3] is human lung cancer cell line A549. The data set can be described thus: Tumor cell growth inhibition, SRB staining, A549. The format is cell-based. The note with it: A549, 72 h. The method, boiled down:
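Growth inhibition by SRB staining: 4000 cells/well seeded overnight, then compound at 100, 10, 1, 0.1 and 0.01 μM for 72 h in triplicate. Fixed with TCA, OD read at 515 nm. Inhibition rate taken against solvent control; experiment done twice.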
On the technique in general: Sulforhodamine B stains cellular protein and so reports cell mass.

The target in data set [4] is HSP90α (Homo sapiens (Human), UniProt P07900). The data set can be described thus: Fluorescence polarization (FP) HSP90-alpha target binding assay. The note with it: fluorescence polarization; read-out: Target binding ability HSP90α FP IC50. The method in brief: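 Displacement of 5 nM GM-BODIPY from 30 nM HSP90 measured by fluorescence polarization (ex 485/em 535 nm). Buffer: 100 mM Tris-Cl pH 7.4, 20 mM KCl, 6 mM MgCl2, 5 μg/mL BSA. Incubation 12–16 h at 4 °C. Percent inhibition from mP relative to compound-free and tracer-only controls.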
Background: In fluorescence polarisation assays a small probe gives low polarisation when free and higher when bound to something large.

Data set [5] has as its system BT-474 tumor cells. Description: In vivo efficacy, BT-474 breast cancer transplantation tumor in nude mice. The note with it: BT-474 xenograft. Here is the method:
as §1, with “BT-474 tumor” for “A549 tumor”, “group (n=6),” for “group (n=5),”, “groups (n=6” for “groups (n=5”, “drug Ganetespib (20” for “drug Luminespib (50”, “compound 67 (10 mg/kg and 20” for “compound 1 (50”, “concentrations, three times” for “concentrations, twice”
as §2

In data set [6] the test system is human colon cancer cell line HCT116. Description: Tumor cell growth inhibition, SRB staining, HCT116. The note with it: HCT-116, HCT116, 72 h. In kind it is cell-based. As to the method:
The growth inhibition assay of tumor cells was detected by sulforhodamine B (SRB) staining method. The specific steps were as follows: inoculating human colon cancer cell line HCT116 and human lung cancer cell line A549 (purchased from American Type Culture Collection, ATCC) at the logarithmic growth phase into a 96-well micro culture plate at an appropriate concentration of 4000 cells/well, 100 μL for each well; after culturing overnight, adding with the compound at different concentrations (100, 10, 1, 0.1, 0.01 μM) to react for 72 h, wherein triplicate wells were set up for each concentration, and solvent control wells with the corresponding concentration and zero wells without cells were also set up. After the completion of the reaction, the culture medium was removed from the adherent cells, the later was added with 10% (w/v) trichloroacetic acid (100 μL/well) at 4° C. to fix for 1 h, and then washed five times with distilled water. After drying at room temperature, 100 μL of SRB solution (4 mg/mL, dissolved in 1% glacial acetic acid) was added into each well, followed by incubation and staining for 15 min at room temperature. The uncombined SRB was removed by washing five times with 1% glacial acetic acid. After drying at room temperature, 100 μL of 10 mM Tris solution was added into each well, and the optical density (OD) at 515 nm was measured by a […] microplate reader. The inhibition rate of the drug to tumor cell growth was calculated according to the following equation: Inhibition rate (%)=(OD of control well-OD of drug well)/OD of control well×100%. The experiment was repeated twice.

Where [7] appears, read: concentration in breast tissue (nM).
[8] abbreviates: 10 mpk intravenously three times a week.
Where [9] appears, read: 20 mpk intravenously three times a week.

`CCNC(=O)c1noc(-c2cc(C(C)C)c(O)cc2O)c1-c1ccc(CN2CCOCC2)cc1` [Luminespib]: the “pulmonary exposure dose” value in data set [1] turned out to be 5284 nM·h. For the same compound, the results for the concentration at 0.5 h in data set [1] (setting [7]), in data set [1] (plasma concentration (nM)) and in data set [1] (pulmonary concentration (nM)) were 104 nM, 67.1 nM and 1000 nM, respectively. Also, the concentration at 6 h worked out at 61.4 nM in data set [1] (setting [7]) and 257 nM in data set [1] (pulmonary concentration (nM)). In data set [1] (pulmonary concentration (nM)), the concentration at 24 h was 35.9 nM. The “TGI (%) Day 7” value in data set [2] (Day 7) is 18%. In data set [2] (Day 11), the “TGI (%) Day 11” value is reported as 34%. In data set [2] (Day 14), the “TGI (%) Day 14 (stopping administration)” value was 49%. Moreover, the “TGI (%) Day 17” value in data set [2] (Day 17) was 52%. In data set [2] (Day 28), the “TGI (%) Day 28” value was found to be 35%.
In data set [3], `CCNC(=O)c1onc(-c2cc(C(C)C)c(O)cc2O)c1-c1ccc2c(c1)CCNC2` [Example 67, 3-(2,4-dihydroxyl-5-isopropylphenyl)-N-ethyl-4-(1,2,3,4-tetrahydroisoquinolin-6-yl)isoxazole-5-carboxamide] had a pEC50 above 7.70. Besides, the pIC50 in data set [4] was above 7.70. In data set [5] (setting [8]), the “TGI (%) Day 21” value is given as 137% and the “TGI (%) Day 35” value was 120%. Besides, in data set [5] (setting [9]), the “TGI (%) Day 21” value was 135% and the “TGI (%) Day 35” value came to 129%. Besides, in data set [1], the “breast tissue exposure dose” value turned out to be 7226 nM·h, the “plasma exposure dose” value turned out to be 415 nM·h and the “pulmonary exposure dose” value was 30933 nM·h. Besides, in data set [1] (setting [7]), the concentration at 0.5 h came out at 395 nM, the concentration at 6 h was found to be 376 nM and the concentration at 24 h turned out to be 199 nM. Moreover, in data set [1] (plasma concentration (nM)), the concentration at 0.5 h worked out at 115 nM, the concentration at 6 h came to 9.98 nM and the concentration at 24 h came out at 3.72 nM. In data set [1] (pulmonary concentration (nM)), this compound came in with a concentration at 0.5 h of 3040 nM, a concentration at 6 h of 1530 nM and a concentration at 24 h of 613 nM.
In the case of `CCNC(=O)c1noc(-c2cc(C(C)C)c(O)cc2O)c1C1=CC2CN(C)CC2C1` (stereo not shown) [Example 14, 5-(2,4-dihydroxyl-5-isopropyl-phenyl)-N-ethyl-4-(2-methyl-1,2,3,3a,4,6a-hexahydrocyclopenta[c]pyrrol-5-yl)isoxazole-3-carboxamide], the pIC50 in data set [4] was above 7.70. This compound had a pEC50 in data set [6] above 7.70.
As to `CCNC(=O)c1noc(-c2cc(C(C)C)c(O)cc2O)c1-c1ccc2c(c1)N(C)CCC2` [Example 2, 5-(2,4-dihydroxyl-5-isopropylphenyl)-N-ethyl-4-(1-methyl-1,2,3,4-tetrahydroquinolin-7-yl)isoxazole-3-carboxamide], in data set [4], the pIC50 was 7.00 to 7.70. Moreover, the pEC50 in data set [6] was 7.00 to 7.70.
With `CC(C)c1cc(-c2n[nH]c(=O)n2-c2ccc3c(ccn3C)c2)c(O)cc1O` [Ganetespib], in data set [5] (setting [9]), the “TGI (%) Day 21” value is on record as 124% and the “TGI (%) Day 35” value is 108%. For the same compound, in data set [1] (setting [7]), the concentration at 0.5 h came to 352 nM and the concentration at 6 h was found to be 70.9 nM. Moreover, in data set [1] (plasma concentration (nM)), the concentration at 0.5 h is 267 nM and the concentration at 6 h came out at 4.46 nM. In data set [1] (pulmonary concentration (nM)), this compound displayed a concentration at 0.5 h of 1010 nM and a concentration at 6 h of 101 nM.
`CCNC(=O)c1noc(-c2cc(C(C)C)c(O)cc2O)c1-c1ccc2c(c1)CCCN2C` [Example 3, 5-(2,4-dihydroxyl-5-isopropylphenyl)-N-ethyl-4-(1-methyl-1,2,3,4-tetrahydroquinolin-6-yl)isoxazole-3-carboxamide]: in data set [4], the negative logarithm of the IC50 (pIC50) was 7.00 to 7.70. In data set [6], this compound showed a pEC50 of 7.00 to 7.70.
Turning to `CCNC(=O)c1nsc(-c2cc(C(C)C)c(O)cc2O)c1-c1ccc2c(c1)CCN(C)C2` [Example 13, 5-(2,4-dihydroxyl-5-isopropyl-phenyl)-N-ethyl-4-(2-methyl-1,2,3,4-tetrahydroisoquinolin-6-yl)isothiazole-3-carboxamide], the pIC50 in data set [4] was below 7.00. In data set [6], the pEC50 was below 7.00.
